PMC10534724, “Interaction of ALK Inhibitors with Polyspecific Organic Cation Transporters and the Impact of Substrate-Dependent Inhibition on the Prediction of Drug–Drug Interactions” (Pharmaceutics, 2023)

Key:
hMATE2-K = molecular target: T1, hMATE2-K (Homo sapiens, UniProt Q86VL8); experiment: Inhibition of hMATE2-K-mediated substrate uptake in transfected HEK293 cells (pH 8.0); type: in vitro ADME; settings: HEK293; 20 µM inhibitor; 1 µM mIBG; 2 min, 37 °C
T1 construct: expressed in transfected cells

hOCT2 [1] = molecular target: T2, hOCT2 (Homo sapiens, UniProt O15244); experiment: Inhibition of hOCT2-mediated substrate uptake in transfected HEK293 cells; type: in vitro ADME; parameters: expressed in transfected cells; settings: HEK293; 20 µM inhibitor; 1 µM mIBG; 2 min, 37 °C
T2 sequence (O15244 1-555): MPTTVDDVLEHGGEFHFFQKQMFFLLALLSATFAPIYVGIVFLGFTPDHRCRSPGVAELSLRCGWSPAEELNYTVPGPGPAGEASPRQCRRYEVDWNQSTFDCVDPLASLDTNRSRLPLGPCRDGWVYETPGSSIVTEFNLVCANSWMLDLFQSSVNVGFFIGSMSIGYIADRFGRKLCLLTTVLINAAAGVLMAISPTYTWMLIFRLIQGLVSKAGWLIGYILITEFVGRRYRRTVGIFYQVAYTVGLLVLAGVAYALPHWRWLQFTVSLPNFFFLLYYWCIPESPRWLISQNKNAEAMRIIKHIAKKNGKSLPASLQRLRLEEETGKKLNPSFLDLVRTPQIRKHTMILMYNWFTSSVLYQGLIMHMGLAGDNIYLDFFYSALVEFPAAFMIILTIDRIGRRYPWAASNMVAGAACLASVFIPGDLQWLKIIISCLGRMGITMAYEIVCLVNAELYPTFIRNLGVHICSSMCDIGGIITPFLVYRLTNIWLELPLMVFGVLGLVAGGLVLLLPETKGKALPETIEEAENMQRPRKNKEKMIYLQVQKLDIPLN

hOCT2 [2] = molecular target: T2, hOCT2; settings: cited from earlier work

T1 sequence (Q86VL8 1-566 isoform Q86VL8-3): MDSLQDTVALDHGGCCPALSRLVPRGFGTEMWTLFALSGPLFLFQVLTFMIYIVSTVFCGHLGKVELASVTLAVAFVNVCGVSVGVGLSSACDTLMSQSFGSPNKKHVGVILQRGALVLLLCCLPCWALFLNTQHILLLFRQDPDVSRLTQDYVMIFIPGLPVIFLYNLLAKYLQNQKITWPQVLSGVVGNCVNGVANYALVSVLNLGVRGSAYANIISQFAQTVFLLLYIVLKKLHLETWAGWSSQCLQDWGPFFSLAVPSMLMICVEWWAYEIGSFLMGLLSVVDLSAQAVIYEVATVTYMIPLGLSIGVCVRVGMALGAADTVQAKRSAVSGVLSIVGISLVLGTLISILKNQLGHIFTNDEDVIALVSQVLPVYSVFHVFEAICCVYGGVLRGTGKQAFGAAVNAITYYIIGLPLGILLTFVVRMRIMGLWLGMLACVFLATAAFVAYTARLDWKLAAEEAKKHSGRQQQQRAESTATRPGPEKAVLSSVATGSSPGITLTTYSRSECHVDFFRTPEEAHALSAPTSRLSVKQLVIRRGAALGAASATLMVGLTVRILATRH

Compound	inhibition at 20 µM (hMATE2-K) [%]	inhibition at 20 µM (hOCT2 [1]) [%]	higher potency on OCT2 with atenolol as substrate compared with metformin (hOCT2 [2]) [fold]
C#Cc1cccc(Nc2ncnc3cc(OCCOC)c(OCCOC)cc23)c1 [erlotinib, Erlotinib]	≤ 50	≤ 50	
CN/C(=N/CCSCc1nc[nH]c1C)NC#N [cimetidine]			10
